We go through 45 compounds from patent US9707234B2, “Spirocyclic hetercycle compounds useful as HIV integrase inhibitors” (MERCK SHARP & DOHME CORP., priority 2013, dated 2017).

Structures are written as SMILES. Read-outs that look alike come from different tables or passages of the source.

This test deals with HIV-1 (H9IIIB or NL4-3 virus) replication in MT4-GFP cells. Put plainly: microbe, parasite or virus in culture. The format is cell-based. The following applies: inhibition of reproductive ratio R0, 48-72 h post-infection.
[1] abbreviates: Human immunodeficiency virus 1, NL43, MT4-GFP cells infected with HIV-1, 100% normal human serum, read-out: ViKinG IP (nM) with 100% NHS.
[2] abbreviates: MT4-GFP cells infected with HIV-1, 100% normal human serum, read-out: ViKinG IP (nM) with 100% NHS.
Setting [3] is: MT4-GFP cells infected with HIV-1, serum free conditions (0% NHS), read-out: ViKinG IP (nM) with 0% NHS.
[4] abbreviates: Human immunodeficiency virus 1, NL43, MT4-GFP cells infected with HIV-1, serum free conditions (0% NHS), read-out: ViKinG IP (nM) with 0% NHS.
The mark [5] stands for this setting: Human immunodeficiency virus 1, NL43, MT4-GFP cells infected with HIV-1, 10% normal human serum, read-out: ViKinG IP (nM) with 10% NHS.

As for `CN1C(=O)c2c(O)c(=O)c(C(=O)NCc3ccc(F)cc3F)cn2N(CCCC(F)(F)F)C12CCOC2` (single isomer, unassigned) [Compound 164], the IC50 under setting [1] stood at 178 nM.

`CN1C(=O)c2c(O)c(=O)c(C(=O)NCc3cccc(Cl)c3F)cn2CC12CCOC2` (single isomer, unassigned) [Compound 66]: the IC50 is 40 nM under setting [2] and 1.5 nM under setting [3].

Turning to `CC1OCCC12N(C)C(=O)c1c(O)c(=O)c(C(=O)NCc3cccc(Cl)c3F)cn1N2C` (single isomer, unassigned) [Compound 135], the IC50 by setting is: under setting [4], 0.9 nM; under setting [2], 486 nM.

In the case of `COCCN1C(=O)c2c(O)c(=O)c(C(=O)NCc3ccc(F)c(C)c3F)cn2CC12CCOC2` (single isomer, unassigned) [Compound 53], the IC50 by setting is: under setting [1], 2570 nM; under setting [4], 5.3 nM.

Take `CCN1C(=O)c2c(O)c(=O)c(-c3nnc(Cc4ccc(F)cc4F)s3)cn2N(C)C12CCN(S(=O)(=O)N(C)C)CC2` [Compound 13]: the IC50 came to 14 nM under setting [5], 106 nM under setting [1] and 8.6 nM under setting [4].

`CN1C(=O)c2c(O)c(=O)c(C(=O)NCc3ccc(F)cc3F)cn2N(C)C12CCNC2` (single isomer, unassigned) [Compound 169]: the IC50 under setting [4] is 4.4 nM and the IC50 under setting [2] is 512 nM.

As to `CCN1C(=O)c2c(O)c(=O)c(-c3nnc(Cc4ccc(F)cc4F)s3)cn2N(C)C12CCNCC2` [Compound 32], the IC50 was 74 nM under setting [1] and 8 nM under setting [4].

As to `COCCN1C(=O)c2c(O)c(=O)c(C(=O)NCc3ccc(F)c(F)c3F)cn2CC12CCOC2` (single isomer, unassigned) [Compound 71], the IC50 worked out at 350 nM under setting [1] and 3.7 nM under setting [4].

Consider `CCN1C(=O)c2c(O)c(=O)c(-c3nnc(Cc4ccc(F)cc4F)s3)cn2N(C)C12CCN1C(=O)CCC1C2` (stereo not drawn) [Compound 14], for which the IC50 under setting [5] amounted to 41 nM.

In the case of `CN1C(=O)c2c(O)c(=O)c(C(=O)NCc3ccc(F)cc3)cn2N(C)C12CCOC2` (single isomer, unassigned) [Compound 113], the IC50 runs as follows: under setting [1], 94 nM; under setting [4], 1.5 nM.

For the compound `COCCN1n2cc(C(=O)NCc3ccc(F)cc3F)c(=O)c(O)c2C(=O)N(C)C12CCOC2` (single isomer, unassigned) [Compound 155], the IC50 under setting [2] was 37 nM.

As for `COCc1c(C(=O)NCc2ccc(F)cc2F)c(=O)c(O)c2n1CC1(CCOC1)N(C)C2=O` (stereo not drawn) [Compound 48], the IC50 under setting [1] worked out at 194 nM and the IC50 under setting [4] was found to be 124 nM.

For `CN1C(=O)c2c(O)c(=O)c(C(=O)NCc3c(F)cc(F)cc3F)cn2N(C)C12CCOC2` (single isomer, unassigned) [Compound 106], the IC50 reads like this: under setting [2], 27 nM; under setting [3], 0.6 nM.

`CCN1C(=O)c2c(O)c(=O)c(C(=O)NCc3ccc(F)cc3F)cn2N(C)C12CCNC2` (single isomer, unassigned) [Compound 171]: the IC50 was found to be 88 nM under setting [1] and 1.8 nM under setting [4].

On to `COCCCN1C(=O)c2c(O)c(=O)c(C(=O)NCc3ccc(F)cc3F)cn2CC12CCOCC2` [Compound 43], for which the IC50 was 39 nM under setting [1] and 3 nM under setting [4].

Turning to `CCN1C(=O)c2c(O)c(=O)c(-c3nnc(Cc4ccc(F)cc4F)s3)cn2N(C)C12CCN(c1ncccn1)CC2` [Compound 17], the IC50 under setting [1] was 1520 nM and the IC50 under setting [4] amounted to 29.3 nM.

Regarding `CN1C(=O)c2c(O)c(=O)c(C(=O)NCc3ccc(F)cc3)cn2N(C)C12CCOC2` (single isomer, unassigned) [Compound 114], the IC50 under setting [2] worked out at 87 nM and the IC50 under setting [3] was determined as 0.8 nM.

Consider `COCCCN1C(=O)c2c(O)c(=O)c(C(=O)NCc3ccc(F)cc3F)cn2N(C)C12COC2` [Compound 145], for which the IC50 by setting is: under setting [1], 174 nM; under setting [4], 1.4 nM.

Consider `COCCN1C(=O)c2c(O)c(=O)c(C(=O)NCc3ccc(F)cc3F)cn2CC12COC2` [Compound 70], for which the IC50 came out at 91 nM under setting [1] and 2.5 nM under setting [4].

Turning to `C[C@H]1CC2(CCN1C(=O)OCc1ccccc1)N(C)C(=O)c1c(O)c(=O)c(-c3nnc(Cc4ccc(F)cc4F)s3)cn1N2C` (stereo partly drawn) [Compound 21], under setting [5], the IC50 worked out at 141 nM.

For the compound `CN1C(=O)c2c(O)c(=O)c(C(=O)NCc3ccc(F)c(Cl)c3)cn2CC12CCOC2` (single isomer, unassigned) [Compound 61], the IC50 by setting is: under setting [1], 119 nM; under setting [4], 2.4 nM.

Turning to `CCOC(=O)N1CCC2(CC1)Cn1cc(-c3nnc(Cc4ccc(F)cc4F)s3)c(=O)c(O)c1C(=O)N2` [Compound 96], the IC50 was 2240 nM under setting [1] and 69.3 nM under setting [4].

Consider `CN1C(=O)c2c(O)c(=O)c(C(=O)NCc3cccc(Cl)c3F)cn2CC12CCOC2` (single isomer, unassigned) [Compound 65], for which the IC50 stood at 60 nM under setting [1] and 1.5 nM under setting [4].

Regarding `CCN1C(=O)c2c(O)c(=O)c(-c3nnc(Cc4ccc(F)cc4F)s3)cn2N(C)C12CCN(C(=O)OC(C)C)CC2` [Compound 9], the IC50 by setting is: under setting [1], 344 nM; under setting [4], 89.7 nM.

Regarding `COCCCN1C(=O)c2c(O)c(=O)c(C(=O)NCc3ccc(F)cc3F)cn2CC12CCCOC2` (single isomer, unassigned) [Compound 85], the IC50 stood at 5.4 nM under setting [4] and 78 nM under setting [2].

Turning to `COCN1C(=O)c2c(O)c(=O)c(C(=O)NCc3ccc(F)cc3F)cn2CC12CCOC2` (single isomer, unassigned) [Compound 76], the IC50 runs as follows: under setting [2], 151 nM; under setting [3], 2.4 nM.

Turning to `O=C(NCc1ccc(F)cc1F)c1cn2c(c(O)c1=O)C(=O)N(CCCC(F)(F)F)C1(CCOCC1)C2` [Compound 46], the IC50 runs as follows: under setting [1], 110 nM; under setting [4], 3.2 nM.

In the case of `COCCN1C(=O)c2c(O)c(=O)c(C(=O)NCc3ccc(F)cc3F)cn2CC12CCCOC2` (single isomer, unassigned) [Compound 84], the IC50 under setting [2] was 1960 nM and the IC50 under setting [3] came out at 4.5 nM.

Turning to `CCCN1C(=O)c2c(O)c(=O)c(C(=O)NCc3ccc(F)cc3F)cn2CC12CCOCC2` [Compound 41], the IC50 by setting is: under setting [1], 7800 nM; under setting [4], 11.2 nM.

For `CN1C(=O)c2c(O)c(=O)c(C(=O)NCc3ccc(F)c(Cl)c3)cn2N(C)C12CCOC2` (single isomer, unassigned) [Compound 107], the IC50 is 1.2 nM under setting [4] and 790 nM under setting [2].

Take `CN1C(=O)c2c(O)c(=O)c(-c3nnc(Cc4ccc(F)cc4F)s3)cn2N(C)C12CCOCC2` [Compound 22]: the IC50 is, setting by setting: under setting [5], 47 nM; under setting [1], 731 nM.

With `CN1C(=O)c2c(O)c(=O)c(C(=O)NCc3c(F)cc(F)cc3F)cn2CC12CCOC2` (single isomer, unassigned) [Compound 64], the IC50 runs as follows: under setting [2], 26 nM; under setting [3], 3.3 nM.

As for `CCCCCN1C(=O)c2c(O)c(=O)c(C(=O)NCc3ccc(F)cc3F)cn2CC12CCOCC2` [Compound 45], the IC50 runs as follows: under setting [1], 236 nM; under setting [4], 6.4 nM.

Regarding `CN1C(=O)c2c(O)c(=O)c(C(=O)NCc3ccc(F)cc3F)cn2CC12COC2` [Compound 68], the IC50 runs as follows: under setting [1], 134 nM; under setting [4], 7.6 nM.

As for `CCN1n2cc(C(=O)NCc3ccc(F)cc3F)c(=O)c(O)c2C(=O)N(C)C12CCOC2` (single isomer, unassigned) [Compound 150], the IC50 worked out at 71 nM under setting [2] and 0.6 nM under setting [3].

`COCCN1C(=O)c2c(O)c(=O)c(C(=O)NCc3ccc(F)cc3F)cn2CC12CCOCC2` [Compound 42]: the IC50 by setting is: under setting [1], 234 nM; under setting [4], 2.4 nM.

For `CCOC(=O)N1CCC2(CC1)N(CC)C(=O)c1c(O)c(=O)c(-c3cnn(Cc4ccc(F)cc4F)c3)c(CO)n1N2C` [Compound 92], the IC50 under setting [1] was determined as 3650 nM and the IC50 under setting [4] turned out to be 159 nM.

For the compound `CCN1C(=O)c2c(O)c(=O)c(-c3nnc(Cc4ccc(F)cc4F)s3)cn2N(C)C12CCN(C(C)=O)CC2` [Compound 10], the IC50 under setting [5] stood at 57 nM and the IC50 under setting [1] turned out to be 1500 nM.

Regarding `CCN1C(=O)c2c(O)c(=O)c(-c3nnc(Cc4ccc(F)cc4F)s3)cn2N(C)C12CCN(S(C)(=O)=O)CC2` [Compound 12], the IC50 under setting [5] is 24 nM and the IC50 under setting [1] was found to be 126 nM.

As for `COCCN1C(=O)c2c(O)c(=O)c(C(=O)NCc3ccc(F)cc3F)cn2N(C)C12CCOC2` (single isomer, unassigned) [Compound 122], the IC50 reads like this: under setting [2], 1990 nM; under setting [3], 2.4 nM.

Consider `COCCN1C(=O)c2c(O)c(=O)c(C(=O)NCc3ccc(F)cc3F)cn2CC12CCNCC2` [Compound 87], for which the IC50 stood at 98 nM under setting [1] and 16 nM under setting [4].

Turning to `CN1C(=O)c2c(O)c(=O)c(C(=O)NCc3cccc(Cl)c3F)cn2N(C)C12COCC2(C)C` (single isomer, unassigned) [Compound 128], the IC50 by setting is: under setting [2], 131 nM; under setting [3], 0.7 nM.

Take `CCOC(=O)N1CCC2(C1)N(CC)C(=O)c1c(O)c(=O)c(C(=O)NCc3ccc(F)cc3F)cn1N2C` (single isomer, unassigned) [Compound 140]: the IC50 was 48 nM under setting [2] and 1.7 nM under setting [3].

For `CN1C(=O)c2c(O)c(=O)c(-c3nnc(Cc4ccc(F)cc4F)s3)cn2N(C)C12CCN(c1ccccn1)CC2` [Compound 30], the IC50 under setting [1] was 280 nM and the IC50 under setting [4] was determined as 38.5 nM.

On to `CN1C(=O)c2c(O)c(=O)c(C(=O)NCc3ccccc3F)cn2N(C)C12CCOC2` (single isomer, unassigned) [Compound 112], for which the IC50 reads like this: under setting [2], 231 nM; under setting [3], 0.9 nM.
